Results from PubChem BioAssay (NCI).
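Five compound concentrations were applied to cells in 96-well plates for 48 hours; endpoints were derived by simple linear interpolation of the resulting dose-response curve. TGI: concentration producing complete growth inhibition.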

Columns and labels:
Assay in all cases: NCI tumour cell line growth inhibition, 48 h
786-0 renal = system: 786-0 renal
A498 renal = system: A498 renal
A549 NSCLC = system: A549 NSCLC
ACHN renal = system: ACHN renal
BT-549 breast = system: BT-549 breast
CAKI-1 renal = system: CAKI-1 renal
CCRF-CEM leukemia = system: CCRF-CEM leukemia
COLO 205 colon = system: COLO 205 colon
DU-145 prostate = system: DU-145 prostate
EKVX NSCLC = system: EKVX NSCLC
HCC-2998 colon = system: HCC-2998 colon
HCT-116 colon = system: HCT-116 colon
HL-60(TB) leukemia = system: HL-60(TB) leukemia
HOP-92 NSCLC = system: HOP-92 NSCLC
HS 578T breast = system: HS 578T breast
HT29 colon = system: HT29 colon
IGROV1 ovarian = system: IGROV1 ovarian
K-562 leukemia = system: K-562 leukemia
KM12 colon = system: KM12 colon
LOX IMVI melanoma = system: LOX IMVI melanoma
M14 melanoma = system: M14 melanoma
MALME-3M melanoma = system: MALME-3M melanoma
MCF7 breast = system: MCF7 breast
MDA-MB-231 breast = system: MDA-MB-231 breast
MDA-MB-435 = system: MDA-MB-435
MDA-N = system: MDA-N
MOLT-4 leukemia = system: MOLT-4 leukemia
NCI-H226 lung = system: NCI-H226 lung
NCI-H23 lung = system: NCI-H23 lung
NCI-H460 lung = system: NCI-H460 lung
NCI-H522 lung = system: NCI-H522 lung
NCI/ADR-RES ovarian = system: NCI/ADR-RES ovarian
OVCAR-3 ovarian = system: OVCAR-3 ovarian
OVCAR-4 ovarian = system: OVCAR-4 ovarian
OVCAR-8 ovarian = system: OVCAR-8 ovarian
PC-3 prostate = system: PC-3 prostate
RPMI-8226 leukemia = system: RPMI-8226 leukemia
SF-268 CNS = system: SF-268 CNS
SF-295 CNS = system: SF-295 CNS
SF-539 CNS = system: SF-539 CNS
SK-MEL-2 melanoma = system: SK-MEL-2 melanoma
SK-MEL-28 melanoma = system: SK-MEL-28 melanoma
SK-MEL-5 melanoma = system: SK-MEL-5 melanoma
SK-OV-3 ovarian = system: SK-OV-3 ovarian
SN12C renal = system: SN12C renal
SNB-19 CNS = system: SNB-19 CNS
SR leukemia = system: SR leukemia
SW-620 colon = system: SW-620 colon
T-47D breast = system: T-47D breast
TK-10 renal = system: TK-10 renal
U251 CNS = system: U251 CNS
UACC-257 melanoma = system: UACC-257 melanoma
UACC-62 melanoma = system: UACC-62 melanoma
UO-31 renal = system: UO-31 renal
HCT-15 colon = system: HCT-15 colon
HOP-62 NSCLC = system: HOP-62 NSCLC
OVCAR-5 ovarian = system: OVCAR-5 ovarian

O=C(CC(=O)Nc1ccc(C(=O)O)cc1)Nc1ccc(C(=O)O)cc1
TGI (786-0 renal): > 100 µM
TGI (A498 renal): > 100 µM
TGI (A549 NSCLC): > 100 µM
TGI (ACHN renal): > 100 µM
TGI (BT-549 breast): > 100 µM
TGI (CAKI-1 renal): > 100 µM
TGI (CCRF-CEM leukemia): > 100 µM
TGI (COLO 205 colon): > 100 µM
TGI (DU-145 prostate): > 100 µM
TGI (EKVX NSCLC): > 100 µM
TGI (HCC-2998 colon): > 100 µM
TGI (HCT-116 colon): > 100 µM
TGI (HL-60(TB) leukemia): > 100 µM
TGI (HOP-92 NSCLC): > 100 µM
TGI (HS 578T breast): > 100 µM
TGI (HT29 colon): > 100 µM
TGI (IGROV1 ovarian): > 100 µM
TGI (K-562 leukemia): > 100 µM
TGI (KM12 colon): > 100 µM
TGI (LOX IMVI melanoma): > 100 µM
TGI (M14 melanoma): > 100 µM
TGI (MALME-3M melanoma): > 100 µM
TGI (MCF7 breast): > 100 µM
TGI (MDA-MB-231 breast): > 100 µM
TGI (MDA-MB-435): > 100 µM
TGI (MDA-N): > 100 µM
TGI (MOLT-4 leukemia): > 100 µM
TGI (NCI-H226 lung): > 100 µM
TGI (NCI-H23 lung): > 100 µM
TGI (NCI-H460 lung): > 100 µM
TGI (NCI-H522 lung): > 100 µM
TGI (NCI/ADR-RES ovarian): > 100 µM
TGI (OVCAR-3 ovarian): > 100 µM
TGI (OVCAR-4 ovarian): > 100 µM
TGI (OVCAR-8 ovarian): > 100 µM
TGI (PC-3 prostate): > 100 µM
TGI (RPMI-8226 leukemia): > 100 µM
TGI (SF-268 CNS): > 100 µM
TGI (SF-295 CNS): > 100 µM
TGI (SF-539 CNS): > 100 µM
TGI (SK-MEL-2 melanoma): 40 µM
TGI (SK-MEL-28 melanoma): > 100 µM
TGI (SK-MEL-5 melanoma): > 100 µM
TGI (SK-OV-3 ovarian): > 100 µM
TGI (SN12C renal): > 100 µM
TGI (SNB-19 CNS): > 100 µM
TGI (SR leukemia): > 100 µM
TGI (SW-620 colon): > 100 µM
TGI (T-47D breast): > 100 µM
TGI (TK-10 renal): > 100 µM
TGI (U251 CNS): > 100 µM
TGI (UACC-257 melanoma): > 100 µM
TGI (UACC-62 melanoma): > 100 µM
TGI (UO-31 renal): > 100 µM

COc1ccc(-n2sc3ncc(C)cc3c2=O)cc1
TGI (786-0 renal): 31 µM
TGI (A549 NSCLC): 44.7 µM
TGI (ACHN renal): 32.3 µM
TGI (BT-549 breast): 35.6 µM
TGI (CCRF-CEM leukemia): 37.5 µM
TGI (COLO 205 colon): 29.5 µM
TGI (DU-145 prostate): 44 µM
TGI (EKVX NSCLC): 33.6 µM
TGI (HCC-2998 colon): > 100 µM
TGI (HCT-116 colon): 34.5 µM
TGI (HCT-15 colon): 38.7 µM
TGI (HOP-62 NSCLC): 45.9 µM
TGI (HOP-92 NSCLC): 42.1 µM
TGI (HS 578T breast): 83.7 µM
TGI (HT29 colon): 31.9 µM
TGI (IGROV1 ovarian): > 100 µM
TGI (K-562 leukemia): > 100 µM
TGI (KM12 colon): 29.6 µM
TGI (M14 melanoma): 32.7 µM
TGI (MALME-3M melanoma): 38.5 µM
TGI (MCF7 breast): 44.2 µM
TGI (MDA-MB-231 breast): 30.7 µM
TGI (MDA-MB-435): 40.5 µM
TGI (MDA-N): 31.8 µM
TGI (MOLT-4 leukemia): > 100 µM
TGI (NCI-H226 lung): 84.6 µM
TGI (NCI-H23 lung): 57.7 µM
TGI (NCI-H460 lung): > 100 µM
TGI (NCI-H522 lung): 45.8 µM
TGI (NCI/ADR-RES ovarian): 64.4 µM
TGI (OVCAR-3 ovarian): 32.4 µM
TGI (OVCAR-4 ovarian): > 100 µM
TGI (OVCAR-5 ovarian): 34.7 µM
TGI (OVCAR-8 ovarian): 35.2 µM
TGI (PC-3 prostate): 29 µM
TGI (RPMI-8226 leukemia): 67.2 µM
TGI (SF-268 CNS): 40.6 µM
TGI (SF-295 CNS): > 100 µM
TGI (SK-MEL-2 melanoma): 52.7 µM
TGI (SK-MEL-28 melanoma): 73 µM
TGI (SK-MEL-5 melanoma): 26 µM
TGI (SK-OV-3 ovarian): > 100 µM
TGI (SN12C renal): 35.4 µM
TGI (SNB-19 CNS): > 100 µM
TGI (SR leukemia): > 100 µM
TGI (SW-620 colon): 89.6 µM
TGI (T-47D breast): 39.4 µM
TGI (TK-10 renal): 33.2 µM
TGI (U251 CNS): 52.6 µM
TGI (UACC-62 melanoma): 34.9 µM
TGI (UO-31 renal): 31.4 µM
